# Laboratory results: US8575089B2, “Composition for preventing or treating inflammation” (University-Industry Cooperation Group of Kyung Hee, priority 2009, dated 2013)
# Where no end group is shown, it is not given here.
# How the values were obtained:
# [1] = test system: mononuclear cells isolated from peripheral blood; assay: IL-6 and IL-10 expression (ELISA) in peripheral blood mononuclear cells treated with SP; type: cell-based, C57b1/6 mice; details: peripheral blood mononuclear cells in T-cell activation media (ConA); 10 nmole/kg SP; 4.5, 10, 24 hours; FIG. 1
# Experimental: Peripheral blood was collected from C57b1/6 mice (8 weeks, sex; male, n=5, Average Weight; 20 g), diluted doubly with PBS, carefully placed on Ficoll in a tube, and then centrifuged at 2200 rpm for 20 minutes. By centrifuging, from the bottom, an erythrocyte layer, a ficoll layer, a mononuclear cell layer, and a plasma layer were obtained in order. The mononuclear cell layer and plasma layer were isolated, excluding the erythrocyte layer and ficoll layer, and then washed one time with PBS. Then, the number of cells was counted; the cells with a concentration of 1×10^5/0.2 ml were seeded onto T-cell activation media (lymphocyte activation media; RPMI, 10% FBS, 100 μM 2-mercaptoetanol, 20 μg/ml ConA); then the cells were cultured at an incubator of 37° C.; and then culture supernatant was taken at 4.5 hours, 10 hours, and 24 hours. For SP-treated group, 10 nmole/kg of SP dissolved in a physiological saline was treated to T-cell activation media. […] After 30 minutes, 100 μl of stop codon was treated to stop the reaction; the optical density was measured at 450 nm; the amounts of cytokines were converted based on a protein conversion formula by a standard sample; and then the results were shown in FIG. 1.
# pancreas beta cells = assay: Streptozotocin-induced Type I diabetes: insulin IHC staining of pancreas; type: in vivo, ICR mouse
# [2] = test system: inflammatory cells in blood; assay: Radiation-irradiating model: CBC of inflammatory cells in blood; type: in vivo, C57b1/6 mice; details: mice, 8 Gy, 5 nmole/kg SP i.v. one day before and immediately after irradiation, 4.5 hours after irradiation, vs group without SP
# Experimental: (§1) 5 nmole/kg of SP dissolved in a physiological saline was injected to a tail vein of C57b1/6 mice (8 weeks, sex; male, n=4, Average weight; 20 g) one day before irradiation and immediately after irradiation. The irradiation was performed at 8 Gy radiation in a Gamma lay radiation irradiator (^137Cs, Atomic Energy of Canada, Mississauga, Canada). The mice were sacrificed at 4.5 hours and one day after irradiation, and then the blood was collected. The part of the blood was used for analyzing CBC (Complete Blood Count) and the remaining blood was used to isolate serum and then analyze cytokines
# 200 μl of mouse's blood was taken at 4.5 hours and one day after 8 Gy radiation; it was added to a vial including a small amount of EDTA and then analyzed for CBC. […] It was confirmed that SP has an effect of inhibiting an increase of inflammatory cells caused by irradiation.
# [3] = Streptozotocin-induced Type I diabetes: blood glucose level and weight; type: in vivo, ICR mouse; details: for blood glucose level: FIG. 13
# Experimental: Specifically, 5 nmole/kg of SP dissolved in a physiological saline was injected to a tail vein of ICR mouse (8 weeks, sex; male, n=10, Average Weight: 30 g), and then STZ (Sigma, USA) was intraabdominally injected. Streptozotocin was daily injected intraabdominally for two days, and SP was intravenously injected at the same concentration for five days. Only streptozotocin was injected for the control; after one week, blood glucose level was checked to confirm induction of diabetes; then SP was intravenously injected for five days from seven days after STZ injection.
# Blood glucose level and weight were investigated. One drop of blood was taken from a tail vein of mouse by one time per 2-3 days, and a blood glucose level was measured by using a glucometer (Roche, Switzerland) and a weight was measured.
# IL-10 = assay: Radiation-irradiating model: anti-inflammatory cytokine IL-10 in blood (ELISA); type: in vivo, C57b1/6 mice; details: mice, 8 Gy, 5 nmole/kg SP i.v., FIG. 9
# Experimental: as §1
# IL-6 and TNFα that are well known as inflammatory cytokines were analyzed. Specific procedures were as follows: Serum samples stored in […] and reagents, controls, and standard proteins stored in a cold storage were taken out at a room temperature. […] After 30 minutes, 100 μl of stop codon was treated to stop the reaction; the optical density was measured at 450 nm; the amounts of cytokines were converted based on a protein conversion formula by a standard sample; and then the result was shown in FIG. 8. […]
# IL-10 that is well known as an anti-inflammatory cytokine was analyzed with ELISA (R&D System) by using the same method as Example 2-2.
substance,measurement,setting,value
"Substance-P (RPKPQQFFGLM; not fully specified; ends and bridges not checked; UniProt P20366 58-68, looked up)",expression level of IL-6 in culture supernatant,[1],no a significant difference
same,expression level of IL-10 in culture supernatant,[1],increased
same,diabetes lesion,"pancreas beta cells; STZ-induced diabetes, SP treated after inducing diabetes",becomes weak
same,progress of Type I diabetes,"pancreas beta cells; STZ-induced diabetes, SP treated when diabetes was induced",inhibits
same,death of beta cells secreting insulin,"pancreas beta cells; STZ-induced diabetes, mice sacrificed at 11 weeks, FIG. 12",inhibited
same,insulin secretion (Insulin IHC staining of pancreas),"pancreas beta cells; group with injecting SP, mice sacrificed at 11 weeks, vs significantly low with only STZ, FIG. 12",high
same,leukocyte (White Blood Cell) in blood,[2]; FIG. 7A,decreased at least two times
same,mononuclear cell in blood,[2]; FIG. 7B,decreased at least two times
same,neutrophilic leukocyte in blood,[2]; FIG. 7C,decreased at least two times
same,decrease of eosinocyte in blood,[2]; FIG. 7D,30-40%
same,blood glucose level,[3]; STZ/SP-injected group: 5 nmole/kg SP i.v. for five days at the same time as STZ,maintained in normal state
same,weight,"[3]; STZ/SP-injected group: 5 nmole/kg SP i.v. for five days at the same time as STZ, FIG. 14",maintained in normal state
same,blood glucose level,"[3]; STZ/after SP-injected group: SP i.v. for five days from seven days after STZ, after inducing diabetes",decreased in the short run
same,amount of IL-10 in blood,IL-10; 4.5 hours after irradiation,increased by at least two times
same,amount of IL-10 in blood,IL-10; one day after irradiation,increased
